What was measured:
SU-DHL-6 = assay: Induction of cell cycle arrest in human SU-DHL-6 cells assessed as accumulation of cells at G0/G1 phase at 0.5 uM incubated for 24 hrs by PI staining based FACScan flow cytometry analysis (reference value: 55.61 %); type: functional
DOHH-2 [1] = assay: Induction of apoptosis in human DOHH-2 cells assessed as late apoptotic cells at 2 uM incubated for 48 hrs in presence of ibrutinib by annexin V-FITC and PI staining based flow cytometry analysis (reference value: 2.20 %); type: functional
[2] = Half life in Sprague-Dawley rat at 10 mg/kg, po measured upto 24 hrs by LC-MS/MS analysis; type: ADME, organism-based; conditions: in vivo
[3] = AUC(0 to t) in Sprague-Dawley rat at 5 mg/kg, po measured upto 24 hrs by LC-MS/MS analysis; type: ADME, organism-based; set-up: dose 5 mg/kg, time < 24 hrs, route po; conditions: in vivo
[4] = Selectivity ratio of IC50 for human SKOV-3 cells over expressing PI3Kalpha to IC50 for human SUDHL-6 cells; type: functional
[5] = Cmax in Sprague-Dawley rat at 2 mg/kg, iv measured upto 24 hrs by LC-MS/MS analysis; type: ADME, organism-based; set-up: time < 24 hrs, dose 2 mg/kg, route iv; conditions: in vivo
DOHH-2 [6] = assay: Induction of apoptosis in human DOHH-2 cells assessed as necrotic cells at 2 uM incubated for 48 hrs by annexin V-FITC and PI staining based flow cytometry analysis (Rvb =0.29 %); type: functional
[7] = Volume of distribution at steady state in Sprague-Dawley rat at 2 mg/kg, iv measured upto 24 hrs by LC-MS/MS analysis; type: ADME, organism-based; conditions: in vivo, read-out: Vdss
DOHH-2 [8] = assay: Induction of apoptosis in human DOHH-2 cells assessed as early apoptotic cells at 2 uM incubated for 48 hrs by annexin V-FITC and PI staining based flow cytometry analysis (reference value: 2.09 %); type: functional
[9] = Tmax in Sprague-Dawley rat at 5 mg/kg, po measured upto 24 hrs by LC-MS/MS analysis; type: ADME, organism-based; conditions: in vivo
[10] = Tmax in Sprague-Dawley rat at 5 mg/kg, iv measured upto 24 hrs by LC-MS/MS analysis; type: ADME, organism-based; conditions: in vivo

Which Activity (SU-DHL-6) does the source give for `C[C@H]1CC[C@@H](c2nc3cccc(Cl)c3c(=O)n2-c2cccnc2)N1c1nc(N)nc(N)c1C#N` here?
Its Activity is 63.84%.

What about the Activity (DOHH-2 [1]) of the same compound?
Its Activity is 25.8%.

And the half-life [2]?
The half-life was 2.4 h.

And the AUC(0-t) at 24 h [3]?
The AUC(0-t) at 24 h was 8610 ng·h/mL.

And the Selectivity ratio [4]?
The Selectivity ratio was 107.

What about the Cmax [5] of the same compound?
The Cmax was 1520 ng/mL.

What about the Activity (DOHH-2 [6]) of the same compound?
The Activity was 1.45%.

What about the Vd [7] of the same compound?
The Vd was 1.66 L/kg.

And the Activity (DOHH-2 [8])?
The Activity was 20.4%.

And the Tmax [9]?
The Tmax was 3.33 h.

What about the Tmax [10] of the same compound?
The Tmax was 4.8 min.
